Measurements reported in patent US6596687B1, “Cell adhesion inhibitors” (Biogen, Inc., priority 1995, dated 2003).
Numbered stars: 1 amine (or outer) side, 2 acyl side, 3 side chain; on linkers, the order of the positions; unused ones are H or OH. Square brackets hold non-standard residues; d marks the D form. Peptide text beside a SMILES is read from it. * marks the point of attachment. X2 = O=C(Cc1ccc(N[*:1])cc1)[*:2]; NH(2-F-phenyl) = Fc1ccccc1N*; Piperidide = C1CCN(*)CC1; PhAc = O=C(Cc1ccccc1)*; CO = O=C([*:1])[*:2]; NHBn = c1ccc(CN*)cc1; NHPh = c1ccc(N*)cc1; Bn = c1ccc(C*)cc1; NHiBu = CC(C)CN*; NHiPr = CC(C)N*

Biological target: T1, VLA-4 (alpha4beta1 integrin) (UniProt P13612 34-1032; P05556 21-798, limits assumed)
T1 construct: whole, on cells; also called very late antigen-4; CD49d/CD29
Experiment: Ramos/BSA-CS1 adhesion inhibition
Details: not given
Procedure: Following labelling, the cells were washed twice in assay buffer (24 mM TRIS, 137 mM NaCl, 2.7 mM KCl, pH 7.4, containing 0.1 BSA and 2mM glucose) to remove any cations originating from the culture medium. The cells were then resuspended in assay buffer to 4 ×10^6 cells/mL and 2 mM MnCl_2 was added to upregulate VLA4 on the surface of the cells.
Immediately prior to running the assay, we removed the BSA blocking solution from the 96-well plates and washed the wells with 100 μL of assay buffer. We then added to each well 25 μL of test cell adhesion inhibitory compound at 2×the final concentration and 25 μL of the labelled Ramos cells. […] Each concentration of compound was tested in triplicate. The compound and cells are allowed to incubate for 30 minutes at room temperature.
Percent binding is calculated by the formula: […]

T1 sequence (P13612 34-1032 limits assumed, chain 1 of 2): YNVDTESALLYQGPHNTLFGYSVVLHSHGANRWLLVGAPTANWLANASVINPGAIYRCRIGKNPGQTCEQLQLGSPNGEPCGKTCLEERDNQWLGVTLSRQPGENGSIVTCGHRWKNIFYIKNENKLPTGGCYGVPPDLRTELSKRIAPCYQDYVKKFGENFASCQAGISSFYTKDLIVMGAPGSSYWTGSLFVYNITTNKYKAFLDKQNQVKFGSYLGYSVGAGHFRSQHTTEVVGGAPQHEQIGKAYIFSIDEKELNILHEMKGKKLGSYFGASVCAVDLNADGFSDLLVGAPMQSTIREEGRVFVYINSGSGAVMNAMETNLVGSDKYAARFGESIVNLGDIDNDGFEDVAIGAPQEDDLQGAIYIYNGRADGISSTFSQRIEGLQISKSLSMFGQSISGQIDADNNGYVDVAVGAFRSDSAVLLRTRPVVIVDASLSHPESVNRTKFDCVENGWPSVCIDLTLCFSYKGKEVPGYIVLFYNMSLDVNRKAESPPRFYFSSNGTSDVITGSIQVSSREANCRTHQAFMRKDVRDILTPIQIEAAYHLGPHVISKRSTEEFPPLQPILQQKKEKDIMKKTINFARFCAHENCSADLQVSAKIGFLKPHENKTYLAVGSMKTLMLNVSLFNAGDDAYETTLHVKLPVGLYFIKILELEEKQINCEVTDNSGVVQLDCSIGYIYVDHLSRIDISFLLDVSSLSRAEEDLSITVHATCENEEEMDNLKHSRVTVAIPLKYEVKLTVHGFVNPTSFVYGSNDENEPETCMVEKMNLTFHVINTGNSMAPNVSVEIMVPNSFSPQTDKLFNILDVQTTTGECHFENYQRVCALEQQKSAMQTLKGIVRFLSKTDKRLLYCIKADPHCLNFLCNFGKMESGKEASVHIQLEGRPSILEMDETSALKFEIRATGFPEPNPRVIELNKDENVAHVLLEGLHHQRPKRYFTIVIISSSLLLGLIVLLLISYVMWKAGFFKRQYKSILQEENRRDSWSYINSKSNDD
T1 sequence (P05556 21-798 limits assumed, chain 2 of 2): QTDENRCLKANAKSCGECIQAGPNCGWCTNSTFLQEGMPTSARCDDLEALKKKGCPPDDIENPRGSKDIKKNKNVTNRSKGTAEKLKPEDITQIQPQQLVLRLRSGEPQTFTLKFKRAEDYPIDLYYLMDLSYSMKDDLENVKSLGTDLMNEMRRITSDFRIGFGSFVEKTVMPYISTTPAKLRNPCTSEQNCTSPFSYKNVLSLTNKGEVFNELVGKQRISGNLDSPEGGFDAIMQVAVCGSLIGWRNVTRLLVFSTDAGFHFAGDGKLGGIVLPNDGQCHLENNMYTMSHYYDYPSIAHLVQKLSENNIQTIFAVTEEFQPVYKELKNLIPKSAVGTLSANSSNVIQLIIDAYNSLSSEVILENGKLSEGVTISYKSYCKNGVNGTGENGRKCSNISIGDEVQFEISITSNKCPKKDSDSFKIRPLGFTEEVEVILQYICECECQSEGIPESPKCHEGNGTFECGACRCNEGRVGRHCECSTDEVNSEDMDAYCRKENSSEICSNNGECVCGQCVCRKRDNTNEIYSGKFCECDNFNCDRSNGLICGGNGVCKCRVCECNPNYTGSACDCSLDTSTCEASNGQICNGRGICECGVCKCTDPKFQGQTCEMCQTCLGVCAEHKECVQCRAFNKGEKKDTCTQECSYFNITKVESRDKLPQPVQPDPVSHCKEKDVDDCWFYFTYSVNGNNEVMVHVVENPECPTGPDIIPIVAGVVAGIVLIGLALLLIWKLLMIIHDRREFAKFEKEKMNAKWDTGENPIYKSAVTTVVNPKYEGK

| IC50 [µM] | Molecule |
| --- | --- |
| < 0.05 | {3‑methoxy‑4‑(N'-phenylurea)phenylacetyl}-MDVP-OH [Compound 2] |
| 0.05 to 10 | LDVM (HELM PEPTIDE1{[O=C(c1ccc2ccccc2n1)[*:2]].L.D.V.M.[CO[*:1]]}$$$$V2.0; SMILES COC(=O)[C@H](CCSC)NC(=O)[C@@H](NC(=O)[C@H](CC(=O)O)NC(=O)[C@H](CC(C)C)NC(=O)c1ccc2ccccc2n1)C(C)C) [Compound 168] |
| > 10 | LDVM (HELM PEPTIDE1{[CC(C)(C)OC(=O)[*:2]].L.D.V.M.[CO[*:1]]}$$$$V2.0; SMILES COC(=O)[C@H](CCSC)NC(=O)[C@@H](NC(=O)[C@H](CC(=O)O)NC(=O)[C@H](CC(C)C)NC(=O)OC(C)(C)C)C(C)C) [Compound 167] |
| < 0.05 | {4‑(N'-2-hydroxyphenylurea)phenylacetyl}-MDVP-OH [Compound 146] |

Biological target: T2, VLA4 (Homo sapiens, UniProt P05556+P13612)
T2 construct: endogenous in cells; host or cells: Ramos cells
Experiment: Inhibition of VLA4-dependent adhesion of Ramos cells to BSA-CS1
Type: cell-based
Details: Ramos cells, BSA-CS1 coated wells, 2 mM MnCl2, 30 minutes at room temperature; read-out: IC50
Procedure, shortened: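 BCECF-AM-labelled Ramos cells in Tris buffer pH 7.4 with 2 mM MnCl2 were added with compound to wells coated with BSA-conjugated Cys-Tyr-CS1 peptide (1 μg/mL). Cells and compound were incubated for 30 min at room temperature, in triplicate. Inhibition was quantified from bound fluorescence against no-compound controls, with uncoated wells used for nonspecific binding.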

T2 sequence (P13612 34-1032): as the sequence (P13612 34-1032 limits assumed, chain 1 of 2) above
T2 sequence (P05556 21-798): as the sequence (P05556 21-798 limits assumed, chain 2 of 2) above

| IC50 [µM] | Molecule |
| --- | --- |
| > 10 | CC(C)CNC(=O)[C@H](CC(=O)O)NC(=O)[C@@H]1CCCN1C(=O)CCc1ccc(O)cc1 [Compound 331] |
| < 0.05 | CC(C)C[C@H](NC(=O)Cc1ccc(NC(=O)Nc2ccccc2F)cc1)C(=O)N[C@@H](CC(=O)O)C(=O)N[C@H](C(=O)N1CCC[C@H]1C(=O)O)C(C)C [Compound 347] ({NH(2-F-phenyl)-CO}-[X2]LDVP-OH) |
| > 10 | CNC(=O)[C@@H](NC(=O)[C@H](CC(=O)O)NC(=O)[C@H](CCCCN)NC(=O)Cc1ccccc1)C(C)C [Compound 350] (HELM PEPTIDE1{[O=C(Cc1ccccc1)[*:2]].K.D.V.[CN[*:1]]}$$$$V2.0) |
| > 10 | CNC(=O)[C@H](COCc1ccccc1)NC(=O)[C@H](CC(=O)O)NC(=O)[C@H](CC(C)C)NC(=O)c1ccc2ccccc2n1 [Compound 353] |
| > 10 | CCCCNC(=O)[C@@H](NC(=O)[C@H](CC(=O)O)NC(=O)[C@H](CC(C)C)NC(=O)OC(C)(C)C)[C@@H](C)O [Compound 354] (HELM PEPTIDE1{[CC(C)(C)OC(=O)[*:2]].L.D.T.[CCCCN[*:1]]}$$$$V2.0) |

The next lines start with the molecule.

| Molecule | IC50 [µM] |
| --- | --- |
| CC(C)C[C@H](NC(=O)Cc1ccc(NC(=O)Nc2ccccc2)cc1)C(=O)N[C@@H](CC(=O)O)C(=O)N[C@H](C(=O)N1CCC[C@H]1C(=O)N1CCCCC1)C(C)C [Compound 325] ({NHPh-CO}-[X2]LDVP-Piperidide) | 0.05 to 10 |
| CC(C)C[C@H](NC(=O)Cc1ccc(NC(=O)Nc2ccccc2)cc1)C(=O)N[C@@H](CC(=O)O)C(=O)N[C@H](C(=O)N1CCC[C@H]1C(=O)NCc1ccccc1)C(C)C [Compound 326] ({NHPh-CO}-[X2]LDVP-NHBn) | < 0.05 |
| CC(C)C[C@H](NC(=O)Cc1ccc(NC(=O)Nc2ccccc2)cc1)C(=O)N[C@@H](CC(=O)O)C(=O)N[C@H](C(=O)N1CCC[C@H]1C(=O)NC(C)C)C(C)C [Compound 327] ({NHPh-CO}-[X2]LDVP-NHiPr) | < 0.05 |
| CC(C)CNC(=O)[C@@H]1CCCN1C(=O)[C@@H](NC(=O)[C@H](CC(=O)O)NC(=O)[C@H](CC(C)C)NC(=O)Cc1ccc(NC(=O)Nc2ccccc2)cc1)C(C)C [Compound 328] ({NHPh-CO}-[X2]LDVP-NHiBu) | < 0.05 |
| CNC(=O)[C@@H](NC(=O)[C@H](CC(=O)O)NC(=O)[C@H](CC(C)C)N(C)C(=O)CCCc1ccccc1)C(C)C [Compound 348] | > 10 |
| CNC(=O)[C@@H](NC(=O)[C@H](CC(=O)O)NC(=O)[C@H](CO)NC(=O)Cc1ccccc1)C(C)C [Compound 349] (HELM PEPTIDE1{[O=C(Cc1ccccc1)[*:2]].S.D.V.[CN[*:1]]}$$$$V2.0) | > 10 |
| CNC(=O)[C@H](COCc1ccccc1)NC(=O)[C@H](CC(=O)O)NC(=O)[C@H](CC(C)C)NC(=O)Cc1ccccc1 [Compound 352] (PhAc-Leu-Asp-Ser(Bn)-NHMe) | > 10 |
